Laboratory results as given in paper PMC7239824, “Impact of intracellular hemin on N-type inactivation of voltage-gated K^+ channels” (Pflugers Archiv, 2020).

Target: T1, hKvβ1.1 1-140 (Homo sapiens, UniProt Q14722)
T1 construct: gene KCNAB1; E. coli BL21(DE3) pRIL; NHS-dye labelled
T1 sequence (Q14722 1-140 isoform Q14722-2): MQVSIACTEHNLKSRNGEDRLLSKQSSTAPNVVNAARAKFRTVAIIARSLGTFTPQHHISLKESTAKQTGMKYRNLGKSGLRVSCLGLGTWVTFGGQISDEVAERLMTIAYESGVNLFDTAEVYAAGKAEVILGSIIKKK
Assay: microscale thermophoresis
Details: read-out: binding constant

Q: `C=CC1=C(C)C2=Cc3c(C=C)c(C)c4[n]3[Fe]([Cl])[n]3c(c(C)c(CCC(=O)O)c3=CC3=NC(=C4)C(C)=C3CCC(=O)O)=CC1=N2` [hemin] was tested. Which Kd did it give?
A: The Kd was 0.098 ± 0.014 µM.
